Results as given in ChEMBL document CHEMBL1130614, “Design and synthesis of a pyridone-based phosphotyrosine mimetic” (Bioorg Med Chem Lett, 1998).

Columns and labels:
[1] = Inhibition of CD19 phosphopeptide binding to p85 N-terminal SH2 domain at 20 uM.
[2] = target: Platelet-derived growth factor receptor (Homo sapiens, UniProt P09619+P16234); experiment: Inhibition of PDGF-beta receptor binding to p85 SH2-domain; assay type: protein-complex assay
[3] = Inhibition of CD19 phosphopeptide binding to p85 N-terminal SH2 domain at 50 uM.

For `CCCCN(CCCC)C(=O)[C@H](C)NC(=O)[C@@H](NC(=O)[C@H](Cc1ccc(OP(=O)(O)O)cc1)NC(C)=O)C(C)C`, which inhibition [1] is on record?
Its inhibition is 98%.

And the IC50 [2]?
Its IC50 is 77 nM.

With `CCCCN(CCCC)C(=O)[C@H](C)NC(=O)[C@@H](NC(=O)[C@H](Cc1ccn(CP(=O)(O)O)c(=O)c1)NC(C)=O)C(C)C` as the molecule, how does the inhibition [3] read?
Its inhibition is 50%.
